Literature values in patent US9662309B2, “Anti-demodicosis agent” (BAYER INTELLECTUAL PROPERTY GMBH, priority 2004, dated 2017).

Test system: demodicosis
Conditions: spot-on treatment 3 times weekly

22,23-dihydroavermectin B1 [ivermectin]
effectiveness against demodicosis: insufficiently effective
